Test results from patent US20250134926A1, “COMPOSITION FOR ANTI-CANCER TREATMENT COMPRISING IMMUNOGENIC TUMOR-DERIVED EXTRACELLULAR VESICLES USING AN ENDOPLASMIC RETICULUM STRESS INDUCER AND METHOD FOR PRODUCING THE SAME” (priority 2023, published 2025).

Test system: melanoma cell line B16F10
Assay: MTT cytotoxicity evaluation of pretreatment substances
Assay type: cell-based, mouse
Conditions: for viability of tumor cells: B16F10, 24 hours
Method: To conduct the cytotoxicity evaluation of each pretreatment substance (tunicamycin and metformin) on the melanoma cell line B16F10, 3-(4,5-dimethylthiazol-2-yl)-2,5-diphenyltetrzolium bromide (MTT) assay was performed. First, 10^4 cells were seeded in each 96-well plate and cultured for 24 hours. Then, cells in each well were treated with each substance at a given concentration and cultured for an additional 24 hours. After the supernatant was discarded, the cells were treated with an MTT-containing medium at the concentration of 0.5 mg/ml and left for two hours, and the intracellular formazan crystals were dissolved in each well using dimethylsulfoxide. Then, the cytotoxicity was analyzed by measuring the absorbance at 570 nm by using a microplate reader.

tunicamycin
viability of tumor cells (concentrations of 0.05 μM or less): no significant decrease
viability of tumor cells (concentrations of 0.1 μM or more): decrease in cell viability
highest concentration at which no decrease in cell viability was observed (B16F10, MTT, 24 hours): 0.05 µM
